Experimental data as given in US20250289789A1, “REVERSIBLE LYSINE COVALENT MODIFIERS OF CDK2 AND USES THEREOF” (Terremoto Biosciences, Inc., priority 2023, published 2025).

Assays:
Format in all cases: cell-based
[1] = molecular target: T1, CDK1-NanoLuc fusion with CCNB1 in 293T or 293 cells (Homo sapiens, UniProt P06493); assay: NanoBRET Target Engagement (TE) Intracellular Kinase Assay, CDK1/CCNB1; conditions: NanoBRET TE intracellular kinase assay, 2-hour incubation, read-out: NanoBRET-CDK1/B1 IC50
T1 construct: host or cells: 293T (ATCC CRL-3216) or 293 (ATCC CRL-1573)
In short: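 293T or 293 cells co-transfected with CDK1-NanoLuc and CCNB1 vectors, incubated 24 h, then exposed to NanoBRET Tracer K-10 plus compound for 2 h at 37° C. BRET ratio (610/450 nm) normalized to DMSO; IC50 from four-parameter logistic fit.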

[2] = molecular target: T2, CDK2-NanoLuc fusion with CCNE1 in 293T or 293 cells (Homo sapiens, UniProt P24941); assay: NanoBRET Target Engagement (TE) Intracellular Kinase Assay, CDK2/CCNE1; conditions: NanoBRET TE intracellular kinase assay, 2-hour incubation, read-out: NanoBRET-CDK2/E1 IC50
T2 construct: host or cells: 293T (ATCC CRL-3216) or 293 (ATCC CRL-1573)

[3] = molecular target: T3, CDK4-NanoLuc fusion with CCND1 in 293T or 293 cells (Homo sapiens, UniProt P11802); assay: NanoBRET Target Engagement (TE) Intracellular Kinase Assay, CDK4/CCND1; conditions: NanoBRET TE intracellular kinase assay, 2-hour incubation, read-out: NanoBRET-CDK4/D1 IC50
T3 construct: host or cells: 293T (ATCC CRL-3216) or 293 (ATCC CRL-1573)

[4] = tested on: Phospho-Rb Ser807/811 in OVCAR3 cells; assay: OVCAR3 Phospho-Rb Ser807/811 HTRF assay; conditions: Homo sapiens, OVCAR-3, 1 h, OVCAR3 cells, Phospho-Rb Ser807/811 HTRF, 1 hour incubation; read-out: pRb-OVCAR3 IC50
Procedure: Cells were trypsinized and resuspended in 1 mM hydroxyurea (Sigma; H8627), 90% RPMI and 10% fetal bovine serum. […] Dose response curve normalized to DMSO control was plotted using four-parameter logistic model for IC50 calculation.

T1 sequence (P06493 whole entry, the tested form may be a part): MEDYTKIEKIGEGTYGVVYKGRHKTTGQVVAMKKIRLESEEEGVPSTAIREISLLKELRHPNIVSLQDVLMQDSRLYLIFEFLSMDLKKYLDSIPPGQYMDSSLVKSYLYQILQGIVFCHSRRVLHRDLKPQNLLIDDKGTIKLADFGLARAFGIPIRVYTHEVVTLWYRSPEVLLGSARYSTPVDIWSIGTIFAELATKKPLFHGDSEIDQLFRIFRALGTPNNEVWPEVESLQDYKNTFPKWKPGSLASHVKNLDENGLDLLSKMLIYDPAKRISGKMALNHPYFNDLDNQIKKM
T1 sequence (P14635 whole entry partner, the tested form may be a part): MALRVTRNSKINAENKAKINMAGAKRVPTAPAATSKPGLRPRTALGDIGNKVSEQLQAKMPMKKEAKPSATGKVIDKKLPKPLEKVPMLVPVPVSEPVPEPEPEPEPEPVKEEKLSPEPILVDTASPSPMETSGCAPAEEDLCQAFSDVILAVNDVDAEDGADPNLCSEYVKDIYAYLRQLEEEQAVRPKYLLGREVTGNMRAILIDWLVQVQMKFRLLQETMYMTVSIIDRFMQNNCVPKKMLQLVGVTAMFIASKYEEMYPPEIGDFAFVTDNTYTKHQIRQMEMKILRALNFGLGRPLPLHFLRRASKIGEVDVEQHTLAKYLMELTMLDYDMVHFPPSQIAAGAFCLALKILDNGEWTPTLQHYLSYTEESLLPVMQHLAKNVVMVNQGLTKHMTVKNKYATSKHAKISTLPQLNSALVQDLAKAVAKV
T3 sequence (P11802 whole entry, the tested form may be a part): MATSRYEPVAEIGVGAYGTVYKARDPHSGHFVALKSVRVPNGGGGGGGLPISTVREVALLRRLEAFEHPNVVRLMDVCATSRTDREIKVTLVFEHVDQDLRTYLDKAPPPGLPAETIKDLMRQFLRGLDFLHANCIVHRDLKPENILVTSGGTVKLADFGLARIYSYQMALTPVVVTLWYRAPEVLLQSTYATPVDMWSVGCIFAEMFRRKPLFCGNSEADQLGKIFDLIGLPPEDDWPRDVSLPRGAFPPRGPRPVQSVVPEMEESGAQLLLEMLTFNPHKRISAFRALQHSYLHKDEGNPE
T3 sequence (P24385 whole entry partner, the tested form may be a part): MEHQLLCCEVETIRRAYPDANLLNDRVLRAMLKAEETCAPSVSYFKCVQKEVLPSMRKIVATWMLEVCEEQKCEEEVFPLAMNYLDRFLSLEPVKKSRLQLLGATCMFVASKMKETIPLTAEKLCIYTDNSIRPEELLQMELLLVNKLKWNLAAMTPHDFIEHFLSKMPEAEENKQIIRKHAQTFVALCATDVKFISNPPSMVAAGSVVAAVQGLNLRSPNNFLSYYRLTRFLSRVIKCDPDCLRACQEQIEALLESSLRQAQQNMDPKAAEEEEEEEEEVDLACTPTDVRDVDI

SMILES | IC50 [1] | IC50 [2] | IC50 [3] | IC50 [4]
COc1cc(O)c(C=O)c(OCC(=O)Nc2cc([C@H]3CC[C@@H](OC(=O)N4CC5CC(C5)C4)C3)[nH]n2)c1 [Compound 226] | 9.17 nM | 2.45 nM | 3060 nM | 63.7 nM
COc1cc(O)c(C=O)c(OCC(=O)Nc2cc([C@H]3CC[C@@H](OC(=O)N(C)N(C)C)C3)[nH]n2)c1 [Compound 172, (1R,3S)-3-(3-(2-(2-formyl-3-hydroxy-5-methoxyphenoxy)acetamido)-1H-pyrazol-5-yl)cyclopentyl 1,2,2-trimethylhydrazine-1-carboxylate] | 25.2 nM | 3.95 nM | > 10000 nM | 132 nM
COc1cc(O)c(C=O)c(OCC(=O)Nc2cc([C@H]3CC[C@@H](OC(=O)N4CCOCC45CC5)C3)[nH]n2)c1 [Compound 205] | 4.59 nM | 3.48 nM | 2040 nM | 26.3 nM
COc1cc(O)c(C=O)c(Oc2ccnc(Nc3cc([C@H]4CC[C@@H](OC(=O)NC(C)C)C4)[nH]n3)c2)c1 [Compound 76, (1R,3S)-3-(3-((4-(2-formyl-3-hydroxy-5-methoxyphenoxy) 476yridine-2-yl)amino)-1H-pyrazol-5-yl)cyclopentyl isopropylcarbamate] | 66 nM | 5.01 nM | 6390 nM | 309 nM
CC1(NC(=O)O[C@@H]2CC[C@H](c3cc(NC(=O)COc4cccc(O)c4C=O)n[nH]3)C2)CCC1 [Compound 83, (1R,3S)-3-{5-[2-(2-formyl-3-hydroxyphenoxy)acetamido]-2H-pyrazol-3-yl}cyclopentyl N-(1-methylcyclobutyl) carbamate; trifluoroacetic acid] | 6.23 nM | 4.75 nM | 2490 nM | 83.3 nM
CC(C)NC(=O)O[C@@H]1CC[C@H](c2cc(NC(=O)c3cc(-c4cccc(O)c4C=O)nn3C3CC3)n[nH]2)C1 [Compound 61, (1R,3S)-3-(3-(1-cyclopropyl-3-(2-formyl-3-hydroxyphenyl)-1H-pyrazole-5-carboxamido)-1H-pyrazol-5-yl)cyclopentyl isopropylcarbamate] | 36.1 nM | 6.27 nM | 2890 nM | 477 nM
COc1cc(O)c(C=O)c(OCC(=O)Nc2cc([C@H]3CC[C@@H](OC(=O)NC4(C)CC4)C3)[nH]n2)c1 [Compound 251, (1R,3S)-3-(3-(2-(2-formyl-3-hydroxy-5-methoxyphenoxy)acetamido)-1H-pyrazol-5-yl)cyclopentyl (1-methylcyclopropyl)carbamate] | 4.13 nM | 1.22 nM | 966 nM | 15.1 nM
COc1cc(O)c(C=O)c(OCC(=O)Nc2cc([C@H]3CC[C@@H](OC(=O)N4C5CCCC4C5)C3)[nH]n2)c1 [Compound 220] | 8.36 nM | 2.89 nM | 1460 nM | 32.1 nM
CC(C)NC(=O)O[C@@H]1CC[C@H](c2cc(NC(=O)c3cc(C#Cc4cccc(O)c4C=O)nn3C)n[nH]2)C1 [Compound 29, (1R,3S)-3-(5-{5-[2-(2-formyl-3-hydroxyphenyl)ethynyl]-2-methylpyrazole-3-amido}-2H-pyrazol-3-yl)cyclopentyl N-isopropylcarbamate] | 494 nM | 18.6 nM | 1550 nM | 2150 nM
COc1cccc(OCC(=O)Nc2cc([C@H]3CC[C@@H](OC(=O)NC4(C)CCC4)C3)[nH]n2)c1C=O [Compound 105, (1R,3S)-3-{5-[2-(2-formyl-3-methoxyphenoxy)acetamido]-2H-pyrazol-3-yl}cyclopentyl N-(1-methylcyclobutyl)carbamate; trifluoroacetic acid] | 2.18 nM | 1.01 nM | 2350 nM | 65.8 nM
COc1cc(O)c(C=O)c([C@H]2C[C@@H]2C(=O)Nc2cc([C@H]3CC[C@@H](OC(=O)NC(C)C)C3)[nH]n2)c1 (single isomer, unassigned) [Compound 90] | 213 nM | 43.8 nM | 5100 nM | 761 nM
C#C[C@@H]1CCCN1C(=O)O[C@@H]1CC[C@H](c2cc(NC(=O)COc3cc(OC)cc(O)c3C=O)n[nH]2)C1 [Compound 222] | 7.61 nM | 3.84 nM | 2830 nM | 63.7 nM
COc1cc(O)c(C=O)c(OCC(=O)Nc2cc([C@@H]3CCC(OC(=O)N4CCCC4)C3)[nH]n2)c1 (some centres unmarked) [Compound 241] | 22.9 nM | 3.05 nM | 3850 nM | 77.6 nM
Cc1cc(O)c(C=O)c(O[C@@H](C)C(=O)Nc2cc([C@H]3CC[C@@H](OC(=O)NC(C)C)C3)[nH]n2)c1 [Compound 252] | 30.6 nM | 6.48 nM | 4090 nM | 326 nM
COc1cc(O)c(C=O)c(OCC(=O)Nc2cc([C@H]3CC[C@@H](OC(=O)N(C)C(C)C)C3)[nH]n2)c1 [Compound 244, (1R,3S)-3-{5-[2-(2-formyl-3-hydroxy-5-methoxyphenoxy)acetamido]-2H-pyrazol-3-yl}cyclopentyl N-isopropyl-N-methylcarbamate] | 4.17 nM | 1.42 nM | 1320 nM | 21.2 nM
CC(C)NC(=O)O[C@@H]1CC[C@H](c2cc(NC(=O)c3ccc(C=O)c4[nH]ncc34)n[nH]2)C1 [Compound 39, (1R,3S)-3-[5-(7-formyl-1H-indazole-4-amido)-2H-pyrazol-3-yl]cyclopentyl N-isopropylcarbamate] | 351 nM | 24.7 nM | 474 nM | 1130 nM
COc1cc(O)c(C=O)c(OCC(=O)Nc2cc([C@H]3CC[C@@H](OC(=O)N4C[C@@H]5CC[C@H]4C5)C3)[nH]n2)c1 [Compound 219] | 4.23 nM | 1.95 nM | 844 nM | 22.6 nM
CC(C)NC(=O)O[C@@H]1CC[C@H](c2cc(NC(=O)[C@H]3C[C@H](Oc4cccc(O)c4C=O)C3)n[nH]2)C1 (single isomer, unassigned) [Compound 1] | 62.9 nM | 7.87 nM | 1800 nM | 274 nM
COc1cc(O)c(C=O)c(-c2cc(C(=O)Nc3cc([C@H]4CC[C@@H](OC(=O)NC(C)C)C4)[nH]n3)n(C)n2)c1 [Compound 48, (1R,3S)-3-{5-[5-(2-formyl-3-hydroxy-5-methoxyphenyl)-2-methylpyrazole-3-amido]-2H-pyrazol-3-yl}cyclopentyl N-isopropylcarbamate; trifluoroacetic acid] | 10.8 nM | 2.28 nM | 848 nM | 125 nM
CCCN(C)C(=O)O[C@@H]1CC[C@H](c2cc(NC(=O)COc3cc(OC)cc(O)c3C=O)n[nH]2)C1 [Compound 225] | 5.09 nM | 2.49 nM | 2600 nM | 18.7 nM
CC(C)NC(=O)O[C@@H]1CC[C@H](c2cc(NC(=O)c3cc(-c4cccc(NS(C)(=O)=O)c4C=O)nn3C)n[nH]2)C1 [Compound 41, (1R,3S)-3-{5-[5-(2-formyl-3-methanesulfonamidophenyl)-2-methylpyrazole-3-amido]-2H-pyrazol-3-yl}cyclopentyl N-isopropylcarbamate; trifluoroacetic acid] | 20.5 nM | 5.32 nM | 3060 nM | 272 nM
COc1cc(O)c(C=O)c(OCC(=O)Nc2cc([C@H]3CC[C@@H](OC(=O)NC(C)(C)C)C3)[nH]n2)c1 [Compound 128, (1R,3S)-3-(3-(2-(2-formyl-3-hydroxy-5-methoxyphenoxy)acetamido)-1H-pyrazol-5-yl)cyclopentyl tert-butylcarbamate] | 5.09 nM | 2.42 nM | 961 nM | 34.8 nM
COc1cc(O)c(C=O)c(OCC(=O)Nc2cc([C@H]3CC[C@@H](OC(=O)N4[C@H](C)COC[C@@H]4C)C3)[nH]n2)c1 [Compound 201] | 12.9 nM | 4.1 nM | 4680 nM | 28.4 nM
CC(C)NC(=O)O[C@@H]1CC[C@H](c2cc(NC(=O)c3cc(-c4cc(F)cc(O)c4C=O)nn3C)n[nH]2)C1 [Compound 42, (1R,3S)-3-{5-[5-(5-fluoro-2-formyl-3-hydroxyphenyl)-2-methylpyrazole-3-amido]-2H-pyrazol-3-yl}cyclopentyl N-isopropylcarbamate; trifluoroacetic acid] | 10.6 nM | 5.5 nM | 2680 nM | 176 nM
COc1cc(O)c(C=O)c(OCC(=O)Nc2cc([C@H]3CC[C@@H](OC(=O)N4[C@@H](C)COC[C@@H]4C)C3)[nH]n2)c1 [Compound 212] | 6.31 nM | 2.98 nM | 1070 nM | 21.8 nM
CC(C)NC(=O)O[C@@H]1CC[C@H](c2cc(NC(=O)Cc3ccc(C=O)c(O)c3)n[nH]2)C1 [Compound 4, (1R,3S)-3-{5-[2-(4-formyl-3-hydroxyphenyl)acetamido]-2H-pyrazol-3-yl}cyclopentyl N-isopropylcarbamate] | 7.08 nM | 5.47 nM | 6.91 nM | 68.8 nM
